Experimental data taken from US12433952B2, “Antibody-drug conjugates targeting folate receptor alpha and methods of use” (ZYMEWORKS BC INC., priority 2022, dated 2025).
Like-named read-outs stand apart in the source and are kept apart here.

Columns and labels:
Experiment in all cases: In vitro cytotoxicity of camptothecin analogues (CellTiter-Glo)
Assay type in all cases: cell-based
Calu-3 (lung cancer) = settings: Homo sapiens, Calu-3, 96 h, read-out: pIC50 Calu-3 (converted)
Procedure: (§1) Cytotoxicity of the camptothecin analogues was assessed in vitro as follows.
(§2) In vitro potency was assessed on multiple cancer cell lines: SK-BR-3 (breast cancer), SKOV-3 (ovarian cancer), Calu-3 (lung cancer), ZR-75-1 (breast cancer) and MDA-MB-468 (breast cancer). Serial dilutions of camptothecin analogues were prepared in RPMI 1640+10% FBS, and 20 μL of each dilution was added to 384-well plates. Cells cultured in log-phase growth were detached by brief incubation in 0.05% Trypsin and resuspended in respective culturing media at 20,000 cells/mL (with the exception of ZR-75 cells, which were resuspended at 10,000 cells/mL). 50 μL of cell suspension was then added to the plates containing test articles. Cells were incubated with test articles for 4 d at 37° C. (with the exception of ZR-75 cells, which were incubated for 5 d). Growth inhibition was assessed by CellTiter-Glo® (Promega Corporation, Madison, WI) and luminescence was measured on a plate reader. IC50 values were determined by GraphPad Prism (GraphPad Software, San Diego CA).

ZR-75-1 (breast cancer) = settings: Homo sapiens, ZR-75-1, 120 h, read-out: pIC50 ZR-75 (converted)
Procedure: as §1, §2

[1] = test system: MDA-MB-468 (breast cancer); settings: Homo sapiens, MDA-MB-468, 96 h, read-out: pIC50 MDA-MB-468 (converted)
Procedure: as §1, §2

SK-BR-3 (breast cancer) = settings: Homo sapiens, SK-BR-3, 96 h, read-out: pIC50 SKBR-3 (converted)
Procedure: as §1, §2

SKOV-3 (ovarian cancer) = settings: Homo sapiens, SK-OV-3, 96 h, read-out: pIC50 SKOV-3 (converted)
Procedure: as §1, §2

Compound | IC50 (Calu-3 (lung cancer); 4 d incubation) | IC50 (ZR-75-1 (breast cancer); 5 d incubation) | IC50 ([1]; 4 d incubation) | IC50 (SK-BR-3 (breast cancer); 4 d incubation) | IC50 (SKOV-3 (ovarian cancer)) | IC50 (Calu-3 (lung cancer)) | IC50 [1] | IC50 (SK-BR-3 (breast cancer)) | IC50 (SKOV-3 (ovarian cancer); 4 d incubation) | IC50 (ZR-75-1 (breast cancer))
CC[C@@]1(O)C(=O)OCc2c1cc1n(c2=O)Cc2c-1nc1cc(F)c(OC)cc1c2CN1CCN(C)CC1 [Compound 107, (S)-4-ethyl-8-fluoro-4-hydroxy-9-methoxy-11-((4-methylpiperazin-1-yl)methyl)-1,12-dihydro-14H-pyrano[3′,4′:6,7]indolizino[1,2-b]quinoline-3,14(4H)-dione] | 4.07 nM | 2.75 nM | 3.89 nM | 3.09 nM | – | – | – | – | – | –
CC[C@@]1(O)C(=O)OCc2c1cc1n(c2=O)Cc2c-1nc1cc(F)c(C)cc1c2CN1CCSCC1CO (stereo partly drawn) [Compound 114, (4S)-4-ethyl-8-fluoro-4-hydroxy-11-((3-(hydroxymethyl)thiomorpholino)methyl)-9-methyl-1,12-dihydro-14H-pyrano[3′,4′:6,7]indolizino[1,2-b]quinoline-3,14(4H)-dione] | – | – | – | – | 0.178 nM | 0.0933 nM | 0.417 nM | 0.107 nM | – | –
CC[C@@]1(O)C(=O)OCc2c1cc1n(c2=O)Cc2c-1nc1cc(F)c(C)cc1c2CN1CC2CC1(CO)CO2 (stereo partly drawn) [Compound 115, (4S)-4-ethyl-8-fluoro-4-hydroxy-11-((4-(hydroxymethyl)-2-oxa-5-azabicyclo[2.2.1]heptan-5-yl)methyl)-9-methyl-1,12-dihydro-14H-pyrano[3′,4′:6,7]indolizino[1,2-b]quinoline-3,14(4H)-dione] | 1.29 nM | – | 4.17 nM | 2.57 nM | – | – | – | – | 3.8 nM | –
CC[C@@]1(O)C(=O)OCc2c1cc1n(c2=O)Cc2c-1nc1cc(F)c(C)cc1c2CN1CCS(=O)(=O)CC1CO (stereo partly drawn) [Compound 116, (4S)-4-ethyl-8-fluoro-4-hydroxy-11-((3-(hydroxymethyl)-1,1-dioxidothiomorpholino)methyl)-9-methyl-1,12-dihydro-14H-pyrano[3′,4′:6,7]indolizino[1,2-b]quinoline-3,14(4H)-dione] | 0.794 nM | – | 9.33 nM | 7.08 nM | – | – | – | – | 12.6 nM | –
CC[C@@]1(O)C(=O)OCc2c1cc1n(c2=O)Cc2c-1nc1cc(F)c(C)cc1c2CN1CC2CC(C1)C2O (stereo partly drawn) [Compound 117, (4S)-4-ethyl-8-fluoro-4-hydroxy-11-((6-hydroxy-3-azabicyclo[3.1.1]heptan-3-yl)methyl)-9-methyl-1,12-dihydro-14H-pyrano[3′,4′:6,7]indolizino[1,2-b]quinoline-3,14(4H)-dione] | 0.162 nM | – | 0.468 nM | 0.0955 nM | – | – | – | – | 0.17 nM | –
CC[C@@]1(O)C(=O)OCc2c1cc1n(c2=O)Cc2c-1nc1cc(F)c(C)cc1c2CN1CC(F)(CO)C1 [Compound 118, (S)-4-ethyl-8-fluoro-11-((3-fluoro-3-(hydroxymethyl)azetidin-1-yl)methyl)-4-hydroxy-9-methyl-1,12-dihydro-14H-pyrano[3′,4′:6,7]indolizino[1,2-b]quinoline-3,14(4H)-dione] | 0.933 nM | – | 1.86 nM | 1.51 nM | – | – | – | – | 1.45 nM | –
CC[C@@]1(O)C(=O)OCc2c1cc1n(c2=O)Cc2c-1nc1cc(F)c(C)cc1c2CN1CC(CO)C1 [Compound 119, (S)-4-ethyl-8-fluoro-4-hydroxy-11-((3-(hydroxymethyl)azetidin-1-yl)methyl)-9-methyl-1,12-dihydro-14H-pyrano[3′,4′:6,7]indolizino[1,2-b]quinoline-3,14(4H)-dione] | 1.17 nM | – | 2.75 nM | 4.17 nM | – | – | – | – | 3.72 nM | –
CC[C@@]1(O)C(=O)OCc2c1cc1n(c2=O)Cc2c-1nc1cc(F)c(C)cc1c2CN1CCC(F)(F)C(CO)C1 (stereo partly drawn) [Compound 120, (4S)-11-((4,4-difluoro-3-(hydroxymethyl)piperidin-1-yl)methyl)-4-ethyl-8-fluoro-4-hydroxy-9-methyl-1,12-dihydro-14H-pyrano[3′,4′:6,7]indolizino[1,2-b]quinoline-3,14(4H)-dione] | 0.1 nM | – | 0.191 nM | 1.1 nM | – | – | – | – | 0.251 nM | –
CC[C@@]1(O)C(=O)OCc2c1cc1n(c2=O)Cc2c-1nc1cc(F)c(C)cc1c2CN1C2CCC1(CO)CC2 [Compound 121, (S)-4-ethyl-8-fluoro-4-hydroxy-11-((1-(hydroxymethyl)-7-azabicyclo[2.2.1]heptan-7-yl)methyl)-9-methyl-1,12-dihydro-14H-pyrano[3′,4′:6,7]indolizino[1,2-b]quinoline-3,14(4H)-dione] | – | – | – | – | 0.195 nM | 0.145 nM | 0.269 nM | 0.148 nM | – | –
CC[C@@]1(O)C(=O)OCc2c1cc1n(c2=O)Cc2c-1nc1cc(F)c(C)cc1c2CNS(=O)(=O)Cc1ccc([N+](=O)[O-])cc1 [Compound 124, (S)—N-((4-ethyl-8-fluoro-4-hydroxy-9-methyl-3,14-dioxo-3,4,12,14-tetrahydro-1H-pyrano[3′,4′:6,7]indolizino[1,2-b]quinolin-11-yl)methyl)-1-(4-nitrophenyl) methanesulfonamide] | 1.7 nM | 2.29 nM | 3.47 nM | 1.2 nM | – | – | – | – | – | –
CC[C@@]1(O)C(=O)OCc2c1cc1n(c2=O)Cc2c-1nc1cc(F)c(OC)cc1c2CNS(=O)(=O)CCO [Compound 130, (S)—N-((4-ethyl-8-fluoro-4-hydroxy-9-methoxy-3,14-dioxo-3,4,12,14-tetrahydro-1H-pyrano[3′,4′:6,7]indolizino[1,2-b]quinolin-11-yl)methyl)-2-hydroxyethane-1-sulfonamide] | 1.66 nM | – | 6.46 nM | 14.8 nM | – | – | – | – | 24 nM | –
CC[C@@]1(O)C(=O)OCc2c1cc1n(c2=O)Cc2c-1nc1cc(F)c(C)cc1c2CNS(N)(=O)=O [Compound 131, (S)—N-((4-ethyl-8-fluoro-4-hydroxy-9-methyl-3,14-dioxo-3,4,12,14-tetrahydro-1H-pyrano[3′,4′:6,7]indolizino[1,2-b]quinolin-11-yl)methyl)methanesulfamide] | – | – | – | – | – | 9.12 nM | 9.12 nM | 1.05 nM | – | 0.955 nM
CC[C@@]1(O)C(=O)OCc2c1cc1n(c2=O)Cc2c-1nc1cc(F)c(OC)cc1c2CNC(=O)NCc1ccc(N)cc1 [Compound 135, (S)-1-(4-aminobenzyl)-3-((4-ethyl-8-fluoro-4-hydroxy-9-methoxy-3,14-dioxo-3,4,12,14-tetrahydro-1H-pyrano[3′,4′:6,7]indolizino[1,2-b]quinolin-11-yl)methyl)urea] | – | – | – | – | – | – | 10.7 nM | 12.3 nM | – | 13.2 nM
CC[C@@]1(O)C(=O)OCc2c1cc1n(c2=O)Cc2c-1nc1cc(F)c(OC)cc1c2CNC(=O)NCCO [Compound 137, (S)-1-((4-ethyl-8-fluoro-4-hydroxy-9-methoxy-3,14-dioxo-3,4,12,14-tetrahydro-1H-pyrano[3′,4′:6,7]indolizino[1,2-b]quinolin-11-yl)methyl)-3-(2-hydroxyethyl)urea] | 63.1 nM | 18.6 nM | 28.2 nM | 17 nM | – | – | – | – | – | –
CC[C@@]1(O)C(=O)OCc2c1cc1n(c2=O)Cc2c-1nc1cc(F)c(N)cc1c2CNC(C)=O [Compound 147, (S)—N-((9-amino-4-ethyl-8-fluoro-4-hydroxy-3,14-dioxo-3,4,12,14-tetrahydro-1H-pyrano[3′,4′:6,7]indolizino[1,2-b]quinolin-11-yl)methyl)acetamide] | 21.4 nM | – | 21.4 nM | 5.13 nM | – | – | – | – | 43.7 nM | –
CC[C@@]1(O)C(=O)OCc2c1cc1n(c2=O)Cc2c-1nc1cc(F)c(N)cc1c2CN1CCCCC1 [Compound 148, (S)-9-amino-4-ethyl-8-fluoro-4-hydroxy-11-(piperidin-1-ylmethyl)-1,12-dihydro-14H-pyrano[3′,4′:6,7]indolizino[1,2-b]quinoline-3,14(4H)-dione] | 0.204 nM | 0.219 nM | 0.204 nM | 0.324 nM | – | – | – | – | – | –
CC[C@@]1(O)C(=O)OCc2c1cc1n(c2=O)Cc2c-1nc1cc(F)c(N)cc1c2CN=[N+]=[N-] [Compound 152, (S)-9-amino-11-(azidomethyl)-4-ethyl-8-fluoro-4-hydroxy-1,12-dihydro-14H-pyrano[3′,4′:6,7]indolizino[1,2-b]quinoline-3,14(4H)-dione] | – | – | – | – | 2.88 nM | 1.48 nM | 5.01 nM | 3.24 nM | – | –
CC[C@@]1(O)C(=O)OCc2c1cc1n(c2=O)Cc2c-1nc1cc(F)c(N)cc1c2CN1CCN(S(=O)(=O)c2ccccc2)CC1 [Compound 153, (S)-9-amino-4-ethyl-8-fluoro-4-hydroxy-11-((4-(phenylsulfonyl)piperazin-1-yl)methyl)-1,12-dihydro-14H-pyrano[3′,4′:6,7]indolizino[1,2-b]quinoline-3,14(4H)-dione] | 0.115 nM | – | – | 0.513 nM | – | – | – | – | 0.933 nM | –
